The results in this text go back to patent US9926297B2, “Bicyclic AZA compounds as muscarinic M1 receptor and/or M4 receptor agonists” (Heptares Therapeutics Limited, priority 2014, dated 2018).

The structures appear in SMILES notation.

The target of assay [1] is T1, human muscarinic M1 receptor (Homo sapiens, UniProt P11229).
T1 sequence (P11229 1-460): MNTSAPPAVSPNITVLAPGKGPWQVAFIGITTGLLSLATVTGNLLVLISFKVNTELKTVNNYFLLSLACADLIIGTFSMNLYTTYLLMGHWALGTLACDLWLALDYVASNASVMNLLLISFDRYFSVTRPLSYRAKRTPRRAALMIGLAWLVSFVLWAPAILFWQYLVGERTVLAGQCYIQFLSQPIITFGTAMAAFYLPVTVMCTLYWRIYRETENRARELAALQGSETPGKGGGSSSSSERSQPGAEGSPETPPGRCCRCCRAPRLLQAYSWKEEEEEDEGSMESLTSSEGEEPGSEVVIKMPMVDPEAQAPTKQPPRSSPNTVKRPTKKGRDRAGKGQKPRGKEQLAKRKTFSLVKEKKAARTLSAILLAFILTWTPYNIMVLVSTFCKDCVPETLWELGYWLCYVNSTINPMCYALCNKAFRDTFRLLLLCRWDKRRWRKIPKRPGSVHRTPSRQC
Nature of the assay: Alphascreen Surefire phospho-ERK1/2 functional assay, M1. In kind it is cell-based. As to conditions: for EC50 / % Emax cf. ACh, M1: CHO cells stably expressing human M1; for EC50: phospho-ERK1/2, * = variable results, read-out: pEC50 M1 (converted); for Emax: CHO, read-out: % Emax cf. ACh, M1, CHO cells stably expressing human M1; for Emax / % Emax cf. ACh, M1: relative to ACh. A general note: Alpha assays give light when donor and acceptor beads are brought close together.

In assay [2] the target is T2, human muscarinic M4 receptor (Homo sapiens, UniProt P08173).
T2 construct: expressed in transfected cells
T2 sequence (P08173 1-479): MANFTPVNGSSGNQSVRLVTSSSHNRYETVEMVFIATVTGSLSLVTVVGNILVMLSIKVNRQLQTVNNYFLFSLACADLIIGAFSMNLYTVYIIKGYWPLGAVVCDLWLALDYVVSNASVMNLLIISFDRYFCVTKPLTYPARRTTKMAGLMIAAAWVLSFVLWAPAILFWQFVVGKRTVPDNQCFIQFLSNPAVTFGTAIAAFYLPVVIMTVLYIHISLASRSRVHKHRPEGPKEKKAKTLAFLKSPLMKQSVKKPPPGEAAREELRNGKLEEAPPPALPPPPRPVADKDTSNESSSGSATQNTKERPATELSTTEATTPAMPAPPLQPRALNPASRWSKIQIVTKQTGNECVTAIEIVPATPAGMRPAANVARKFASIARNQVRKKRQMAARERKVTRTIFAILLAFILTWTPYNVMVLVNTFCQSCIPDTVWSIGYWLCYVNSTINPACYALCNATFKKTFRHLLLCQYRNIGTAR
The experiment in a line: Alphascreen Surefire phospho-ERK1/2 functional assay, M4. In kind it is cell-based. The settings on record: for EC50 / % Emax cf. ACh, M4: CHO cells stably expressing human M4; for EC50: phospho-ERK1/2, * = variable results, read-out: pEC50 M4 (converted); for Emax: CHO, read-out: % Emax cf. ACh, M4, CHO cells stably expressing human M4; for Emax / % Emax cf. ACh, M4: relative to ACh.

For the compound `CCOC(=O)N1CCC2(CC(N3CCC(N4C(=O)OC[C@H]4C(C)C)CC3)C2)C1` (single isomer, unassigned) [2-120 Isomer 2], in assay [1], the EC50 was 398 nM and the maximal response (Emax) is 96%. In assay [2], the EC50 was 316 nM and the Emax is 87%.
As to `CCOC(=O)N1CCC2(CC(N3CCC(N4C(=O)OC[C@@H]4C)CC3)C2)C1` (single isomer, unassigned) [2-121 Isomer 2], in assay [1], the EC50 was 1000 nM and the Emax is 31%. In assay [2], the EC50 is 200 nM and the Emax stood at 60%.
With `CCOC(=O)N1CCC2(CC(N3CCC(N4C(=O)OC[C@@H]4CC)CC3)C2)C1` (single isomer, unassigned) [2-122 Isomer 2], the EC50 in assay [1] is 1000 nM; in assay [2], 158 nM. Also, the figures for the Emax in assay [1] and in assay [2] were 59% and 60%, respectively.
As for `CCOC(=O)N1CCC2(CC(N3CCC(N4CCN(C)C4=O)CC3)C2)C1` (single isomer, unassigned) [2-125 Isomer 2, ethyl 2-[4-(3-methyl-2-oxoimidazolidin-1-yl)piperidin-1-yl]-6-azaspiro[3.4]octane-6-carboxylate], the EC50 in assay [1] is 3980 nM; in assay [2], 316 nM. Besides, the maximal effect (Emax) in assay [1] turned out to be 32%; in assay [2] it was 81%.
The corresponding values for `CCOC(=O)N1CCC2(CC(N3CCC(N4CCCC4c4ccn[nH]4)CC3)C2)C1` (single isomer, unassigned) [2-126 Isomer 2, ethyl 2-{4-[2-(1H-pyrazol-5-yl)pyrrolidin-1-yl]piperidin-1-yl}-6-azaspiro[3.4]octane-6-carboxylate] are > 20000 nM, 79.4 nM, 15% and 60%.
The corresponding values for `CCOC(=O)N1CCC2(CC(N3CCC(N4CCCC4c4ccon4)CC3)C2)C1` (single isomer, unassigned) [2-127 Isomer 2, ethyl 2-{4-[2-(1,2-oxazol-3-yl)pyrrolidin-1-yl]piperidin-1-yl}-6-azaspiro[3.4]octane-6-carboxylate] are > 20000 nM, 10 nM, 11% and 72%.
For `CCOC(=O)N1CCC2(CC(N3CCC(N4CCCC4c4nnn[nH]4)CC3)C2)C1` (single isomer, unassigned) [2-128 Isomer 2, ethyl 2-{4-[2-(1H-tetrazol-5-yl)pyrrolidin-1-yl]piperidin-1-yl}-6-azaspiro[3.4]octane-6-carboxylate], in assay [1], the EC50 is 10000 nM and the Emax stood at 89%. Besides, in assay [2], the EC50 was 1580 nM and the Emax amounted to 104%.
On to `CCOC(=O)N1CCC2(CC(N3CCC(N4CCCC4c4nnn(C)n4)CC3)C2)C1` (single isomer, unassigned) [2-129 Isomer 2, ethyl 2-{4-[2-(2-methyl-2H-tetrazol-5-yl)pyrrolidin-1-yl]piperidin-1-yl}-6-azaspiro[3.4]octane-6-carboxylate], for which, in assay [1], the EC50 was > 20000 nM and the Emax worked out at 12%. In addition, in assay [2], the EC50 was 100 nM and the maximal effect (Emax) turned out to be 55%.
Consider `CCOC(=O)N1CCC2(CC(N3CCC(N4CCCC4c4nnnn4C)CC3)C2)C1` (single isomer, unassigned) [2-130 Isomer 1, ethyl 2-{4-[2-(1-methyl-1H-tetrazol-5-yl)pyrrolidin-1-yl]piperidin-1-yl}-6-azaspiro[3.4]octane-6-carboxylate], for which, in assay [1], the EC50 is 316 nM and the “% Emax cf. ACh, M1” value is 42%. For the same compound, in assay [2], the EC50 was 12.6 nM and the “% Emax cf. ACh, M4” value is listed as 20%.
For `CCOC(=O)N1CCC2(CC(N3CCC(N4CCCC4c4nnnn4C)CC3)C2)C1` (single isomer, unassigned) [2-130 Isomer 2, ethyl 2-{4-[2-(1-methyl-1H-tetrazol-5-yl)pyrrolidin-1-yl]piperidin-1-yl}-6-azaspiro[3.4]octane-6-carboxylate] the same measures were > 20000 nM, 11%, 63.1 nM and 66%.
Turning to `CCOC(=O)N1CCC2(CC(N3CCC(N4CCC[C@@H]4c4cccs4)CC3)C2)C1` (single isomer, unassigned) [2-131 Isomer 2], in assay [1], the EC50 is 501 nM and the maximal effect (Emax) is 61%. In assay [2], the EC50 was 158 nM and the Emax was 108%.
For the compound `CCOC(=O)N1CCC2(CC(N3CCC(N4CCC[C@@H]4c4nccs4)CC3)C2)C1` (single isomer, unassigned) [2-132 Isomer 2], in assay [1], the EC50 was > 20000 nM and the maximal response (Emax) came out at 18%. In assay [2], the EC50 was 12.6 nM and the maximal effect (Emax) worked out at 72%.
Consider `CCOC(=O)N1CCC2(CC(N3CCC([C@@H]4CCCN4C(=O)N4Cc5cccnc5C4)CC3)C2)C1` (single isomer, unassigned) [2-133 Isomer 1], for which, in assay [1], the EC50 is > 20000 nM and the “% Emax cf. ACh, M1” value was 37%. For the same compound, in assay [2], the EC50 was 10 nM and the “% Emax cf. ACh, M4” value worked out at 70%.
Turning to `CCOC(=O)N1CCC2(CC(N3CCC([C@@H]4CCCN4C(=O)N4Cc5cccnc5C4)CC3)C2)C1` (single isomer, unassigned) [2-133 Isomer 2], in assay [1], the EC50 was 79.4 nM and the “% Emax cf. ACh, M1” value is 69%. Further, in assay [2], the EC50 was 0.631 nM and the “% Emax cf. ACh, M4” value was 118%.
As for `CCOC(=O)N1CCC2(CC(N3CCC(N4C[C@H](F)C[C@@H]4C(=O)OC)CC3)C2)C1` (single isomer, unassigned) [2-134 Isomer 2], the EC50 in assay [1] is > 20000 nM; in assay [2], 63.1 nM. Further, the values for the Emax in assay [1] and in assay [2] were 18% and 95%, respectively.
The corresponding values for `CCOC(=O)N1CCC2(CC(N3CCC(N4C[C@@H](F)C[C@@H]4C(=O)OC)CC3)C2)C1` (single isomer, unassigned) [2-135 Isomer 2] are > 20000 nM, 12.6 nM, 15% and 90%.
For `CCOC(=O)N1CCC2(CC(N3CCC(N4C[C@H](F)C[C@@H]4CO)CC3)C2)C1` (single isomer, unassigned) [2-136 Isomer 2], the EC50 in assay [1] is 631 nM; in assay [2] it was 12.6 nM.
Consider `CCOC(=O)N1CCC2(CC(N3CCC(N4C[C@@H](F)C[C@@H]4CO)CC3)C2)C1` (single isomer, unassigned) [2-137 Isomer 2], for which, in assay [1], the EC50 is 1000 nM and the maximal effect (Emax) turned out to be 78%. In addition, in assay [2], the EC50 was 39.8 nM and the maximal response (Emax) amounted to 111%.
In the case of `CCOC(=O)N1CCC2(CC(N3CCC([C@@H]4CCCN4c4nnc(C)o4)CC3)C2)C1` (single isomer, unassigned) [2-138 Isomer 2], in assay [1], the EC50 was > 20000 nM and the maximal response (Emax) turned out to be 17%. Moreover, in assay [2], the EC50 is 39.8 nM and the Emax was determined as 44%.
For `CCOC(=O)N1CCC2(CC(N3CCC(c4cnc(OC)c(C)c4)CC3)C2)C1` (single isomer, unassigned) [3-7 Isomer 2, ethyl 2-[4-(6-methoxy-5-methylpyridin-3-yl)piperidin-1-yl]-6-azaspiro[3.4]octane-6-carboxylate] the same measures were > 20000 nM, 40%, 100 nM and 39%.

As a reminder, the Emax is the maximal effect, on the per cent scale that the assay sets.
